Source: patent US9012365B2, “Compatibility agents for herbicidal formulations comprising 2,4-(Dichlorophenoxy) acetic acid salts” (priority 2006, dated 2015)
Several values for one entry are separate records, joined by “and”; a condition that tells them apart may be missing. Identical values can stand only once.

Assay: Appearance of 10 g solution of (2.5 wt % ai 2,4-D DMA + tested chemical) after adding 40% AMS
Format: physicochemical
Settings: 2.5 wt % ai 2,4-D DMA; for Addition Weight of 40% AMS: System was cloud after adding / Addition Weight of 40% AMS: System was clear after adding: 10 g solution
Method: In this example, the appearance of a 10 g solution of (2.5 wt % ai 2,4-D DMA+tested chemical) was evaluated after adding 40% AMS

[1] = 0.13 wt % a.i. of tested chemical, 0 gram 40% AMS
[2] = 0.13 wt % a.i. of tested chemical
[3] = 1.25 wt % a.i. of tested chemical
[4] = 0.04 wt % a.i. of tested chemical
[5] = 0.05 wt % a.i. of tested chemical

2-ethylhexyl glycoside
0 gram Appearance [1]: Clear | Addition Weight of 40% AMS: System was cloud after adding [2]: 0.226 grams

2-propylheptanol-5 EO
0 gram Appearance [1]: Clear | Addition Weight of 40% AMS: System was cloud after adding [2]: 0.633 grams

2-propylheptanol-8EO
0 gram Appearance [1]: Clear | Addition Weight of 40% AMS: System was clear after adding [2]: 0.43 grams | Addition Weight of 40% AMS: System was cloud after adding [2]: 0.526 grams

CCCCOCCOC(C)=O [Butyl cellosolve Acetate (C4—O—C—C—OOCC), Butyl cellosolve Acetate]
0 gram Appearance [1]: Clear | Addition Weight of 40% AMS: System was clear after adding [2]: 0.162 grams | Addition Weight of 40% AMS: System was cloud after adding [2]: 0.324 grams

CCCCCCCCCCCC[N+](C)(C)CC(=O)[O-] [Lauryldimethyl betaine]
0 gram Appearance [3]: Clear | Addition Weight of 40% AMS: System was clear after adding [3]: 0.693 grams | Addition Weight of 40% AMS: System was cloud after adding [3]: 0.913 grams

CCCCCCCCCCCCOS(=O)(=O)[O-].[Na+] [Sodium lauryl sulfate]
0 gram Appearance [4]: Clear | Addition Weight of 40% AMS: System was cloud after adding [4]: 0.101 grams

Alkyl ether citrate
0 gram Appearance [1]: Clear | Addition Weight of 40% AMS: System was cloud after adding [2]: 0.509 grams

C6-10 isopropylamine alcohol ether sulfate
0 gram Appearance [1]: Clear | Addition Weight of 40% AMS: System was clear after adding [2]: 0.528 grams | Addition Weight of 40% AMS: System was cloud after adding [2]: 0.712 grams

C8-10 + 4 EO phosphate ester (acid)
0 gram Appearance [1]: Clear | Addition Weight of 40% AMS: System was cloud after adding [2]: 0.488 grams

C8-10 glycosides [AG 6210]
0 gram Appearance [1]: Clear | Addition Weight of 40% AMS: System was clear after adding [2]: 1 grams | Addition Weight of 40% AMS: System was cloud after adding [2]: 1.212 grams

C8-10 glycosides [Agnique PG 8166]
0 gram Appearance [1]: Clear | Addition Weight of 40% AMS: System was cloud after adding [2]: 0.217 grams

C9-C11 glycoside
0 gram Appearance [1]: Clear | Addition Weight of 40% AMS: System was cloud after adding [2]: 0.272 grams

C10-12 alcohol ethoxylate (5EO)
0 gram Appearance [1]: Clear | Addition Weight of 40% AMS: System was clear after adding [2]: 1.035 grams | Addition Weight of 40% AMS: System was cloud after adding [2]: 1.226 grams

C10-12 alcohol ethoxylate (7EO)
0 gram Appearance [1]: Clear | Addition Weight of 40% AMS: System was clear after adding [2]: 0.829 grams and 0.903 grams | Addition Weight of 40% AMS: System was cloud after adding [2]: 1.033 grams and 1.026 grams

C10-12 alcohol ethoxylate (9EO)
0 gram Appearance [1]: Clear | Addition Weight of 40% AMS: System was clear after adding [2]: 0.519 grams | Addition Weight of 40% AMS: System was cloud after adding [2]: 0.72 grams

C10-12 alcohol ethoxylate (12EO)
0 gram Appearance [1]: Clear | Addition Weight of 40% AMS: System was clear after adding [2]: 0.619 grams | Addition Weight of 40% AMS: System was cloud after adding [2]: 0.669 grams

C11 alcohol ethoxylate (5EO)
0 gram Appearance [1]: Clear | Addition Weight of 40% AMS: System was clear after adding [2]: 0.819 grams | Addition Weight of 40% AMS: System was cloud after adding [2]: 0.918 grams

Castor oil ethoxylate
0 gram Appearance [1]: very cloudy | Addition Weight of 40% AMS: System was clear after adding [2]: very cloudy | Addition Weight of 40% AMS: System was cloud after adding [2]: 0 grams

Castor oil ethoxylate-20EO
0 gram Appearance [1]: Clear | Addition Weight of 40% AMS: System was clear after adding [2]: 0.279 grams | Addition Weight of 40% AMS: System was cloud after adding [2]: 0.521 grams

Cocamide DEA
0 gram Appearance [1]: Clear | Addition Weight of 40% AMS: System was clear after adding [2]: 0.701 grams | Addition Weight of 40% AMS: System was cloud after adding [2]: 0.987 grams

Coco duoamine-3EO
0 gram Appearance [1]: Clear | Addition Weight of 40% AMS: System was clear after adding [2]: 3.521 grams | Addition Weight of 40% AMS: System was cloud after adding [2]: 4.058 grams

Cocoamine-2EO oxide
0 gram Appearance [1]: Clear | Addition Weight of 40% AMS: System was cloud after adding [2]: 0.096 grams

Cocoamine-5EO
0 gram Appearance [1]: Clear | Addition Weight of 40% AMS: System was clear after adding [2]: 1.478 grams | Addition Weight of 40% AMS: System was cloud after adding [2]: 1.633 grams

Cocoamine-10EO
0 gram Appearance [1]: Clear | Addition Weight of 40% AMS: System was clear after adding [2]: 1.454 grams | Addition Weight of 40% AMS: System was cloud after adding [2]: 1.541 grams

Cocodimethylamidopropylamine
0 gram Appearance [1]: Clear | Addition Weight of 40% AMS: System was clear after adding [2]: 1.488 grams | Addition Weight of 40% AMS: System was cloud after adding [2]: 1.731 grams

Cocotrimethyl Chloride
0 gram Appearance [1]: Clear | Addition Weight of 40% AMS: System was clear after adding [2]: 2.038 grams | Addition Weight of 40% AMS: System was cloud after adding [2]: 2.123 grams

Di (propylene glycol) methyl ether
0 gram Appearance [1]: Clear | Addition Weight of 40% AMS: System was clear after adding [2]: 0.665 grams | Addition Weight of 40% AMS: System was cloud after adding [2]: 0.829 grams

Ethoxylated (6EO) caprylic & capric glycerol ester
0 gram Appearance [1]: Clear | Addition Weight of 40% AMS: System was cloud after adding [2]: 0.163 grams

Ethoxylated (20EO) sorbitol ester
0 gram Appearance [1]: Clear | Addition Weight of 40% AMS: System was clear after adding [2]: 1.037 grams | Addition Weight of 40% AMS: System was cloud after adding [2]: 1.25 grams

Iso C13 + 4EO phosphate ester (acid)
0 gram Appearance [1]: Clear | Addition Weight of 40% AMS: System was cloud after adding [2]: 0.324 grams

Iso C13 etheramine-5EO
0 gram Appearance [1]: Clear | Addition Weight of 40% AMS: System was clear after adding [2]: 1.732 grams | Addition Weight of 40% AMS: System was cloud after adding [2]: 2.045 grams

Na Cocoamphocarboxyglycinate
0 gram Appearance [3]: Clear | Addition Weight of 40% AMS: System was clear after adding [3]: 0.25 grams | Addition Weight of 40% AMS: System was cloud after adding [3]: 0.508 grams

Nonylphenol-4EO
0 gram Appearance [1]: cloudy | Addition Weight of 40% AMS: System was clear after adding [2]: cloudy | Addition Weight of 40% AMS: System was cloud after adding [2]: 0 grams

Nonylphenol-6EO (5EO)
0 gram Appearance [1]: Hazy | Addition Weight of 40% AMS: System was clear after adding [2]: Hazy | Addition Weight of 40% AMS: System was cloud after adding [2]: 0 grams

Nonylphenol-9EO
0 gram Appearance [1]: Clear | Addition Weight of 40% AMS: System was clear after adding [2]: 0.473 grams | Addition Weight of 40% AMS: System was cloud after adding [2]: 0.601 grams

Nonylphenol-9EO carboxylate
0 gram Appearance [1]: Clear | Addition Weight of 40% AMS: System was clear after adding [2]: 1.312 grams | Addition Weight of 40% AMS: System was cloud after adding [2]: 1.692 grams

Nonylphenol-12EO
0 gram Appearance [1]: Clear | Addition Weight of 40% AMS: System was clear after adding [2]: 0.415 grams | Addition Weight of 40% AMS: System was cloud after adding [2]: 0.502 grams

Nonylphenol-30EO
0 gram Appearance [1]: Clear | Addition Weight of 40% AMS: System was clear after adding [2]: 0.487 grams | Addition Weight of 40% AMS: System was cloud after adding [2]: 0.584 grams

Octyliminodipropionate
0 gram Appearance [3]: Clear | Addition Weight of 40% AMS: System was clear after adding [3]: 0.283 grams | Addition Weight of 40% AMS: System was cloud after adding [3]: 0.602 grams

Oleylamphopolycarboxyglycinate
0 gram Appearance [1]: Clear | Addition Weight of 40% AMS: System was clear after adding [2]: 0.261 grams | Addition Weight of 40% AMS: System was cloud after adding [2]: 0.459 grams

Phenol ethoxylate
0 gram Appearance [1]: Clear | Addition Weight of 40% AMS: System was cloud after adding [2]: 0.577 grams

Polyoxyethylene Sorbitol Tallate
0 gram Appearance [1]: Clear | Addition Weight of 40% AMS: System was clear after adding [2]: 0.661 grams | Addition Weight of 40% AMS: System was cloud after adding [2]: 0.71 grams

Propyl glycosides
0 gram Appearance [1]: Clear | Addition Weight of 40% AMS: System was cloud after adding [2]: 0.329 grams

Sodium lauryl olefin sulfonate
0 gram Appearance [5]: Clear | Addition Weight of 40% AMS: System was clear after adding [5]: 1.526 grams | Addition Weight of 40% AMS: System was cloud after adding [5]: 2.121 grams | 0 gram Appearance [1]: Clear | Addition Weight of 40% AMS: System was clear after adding [2]: 1.896 grams | Addition Weight of 40% AMS: System was cloud after adding [2]: 2.546 grams

Sodium xylene sulfonate
0 gram Appearance [1]: Clear | Addition Weight of 40% AMS: System was cloud after adding [2]: 0.524 grams
